The term IC50 denotes the concentration that inhibits the measured activity by half.

From US20250090572A1 (priority 2020, published 2025) come the findings set out here.

Assay [1] deals with Pseudovirus particles containing surface Wuhan-Hu-1 SGP. The assay is classed as cell-based, SARS-CoV-2.
Assay [2] deals with SARS-CoV-2 spike protein (Severe acute respiratory syndrome coronavirus 2, UniProt P0DTC2). The assay is classed as binding. Particulars: spike protein 50 nM, polysaccharide 1 μM.

In assay [1], pentosan polysulfate [PPS] showed a 50% inhibitory concentration (IC50) of 1.6 µg/mL.

Take heparin: the Binding inhibition in assay [2] (competitive binding inhibition between polysaccharide-spike protein complex and heparin-SPR chip) turned out to be 82 ± 7.5%. Also, the “competition with immobilized heparin for spike protein binding” value in assay [2] was “competed with heparin for spike protein binding”. This substance also showed an IC50 in assay [1] of 4.6 µg/mL.
